Source: paper PMC6861283, “Novel Small Molecules Targeting the Intrinsically Disordered Structural Ensemble of α-Synuclein Protect Against Diverse α-Synuclein Mediated Dysfunctions” (Scientific Reports, 2019)

Tests used:
[1] = biological target: T1, α-synuclein (αSyn) (Homo sapiens, UniProt P37840); experiment: split Gaussia luciferase oligomerization assay; also FRET oligomerization, HT-CM-SPR hit (tethered); type: biochemical; set-up: gene SNCA; αSyn-GLuc1 and αSyn-GLuc2 (split Gaussia luciferase fragment fused to the C-terminus of αSyn); monomeric αSyn in SPR
[2] = biological target: T1, α-synuclein (αSyn); experiment: split Gaussia luciferase oligomerization assay; also FRET oligomerization, ThT fibrillization, HT-CM-SPR hit (tethered); type: biochemical; set-up: gene SNCA; αSyn-GLuc1 and αSyn-GLuc2 (split Gaussia luciferase fragment fused to the C-terminus of αSyn); monomeric αSyn in SPR and fibrillization

Cc1c(-c2csc(NC(C(N)=O)C3CCNCC3)n2)sc2ccccc12 (stereo not drawn) [compound 573437, 573437]
IC50 [1]: 104 µM

CNC(=O)c1cc(O)ccc1N [compound 576755, 576755]
IC50 [2]: 10.5 µM

CNC(=O)CN(C(=O)Cc1noc2ccccc12)C(C)c1ccc(Cl)cc1 (stereo not drawn) [compound 582032, 582032]
IC50 [2]: 290 µM
